Consider 4 compounds from US20250352512A2, “C4-S[…] DERIVATIVES AND METHODS OF USING” (priority 2022, published 2025).

Chain of NMDAR (Q13224 27-1484, other chains not shown): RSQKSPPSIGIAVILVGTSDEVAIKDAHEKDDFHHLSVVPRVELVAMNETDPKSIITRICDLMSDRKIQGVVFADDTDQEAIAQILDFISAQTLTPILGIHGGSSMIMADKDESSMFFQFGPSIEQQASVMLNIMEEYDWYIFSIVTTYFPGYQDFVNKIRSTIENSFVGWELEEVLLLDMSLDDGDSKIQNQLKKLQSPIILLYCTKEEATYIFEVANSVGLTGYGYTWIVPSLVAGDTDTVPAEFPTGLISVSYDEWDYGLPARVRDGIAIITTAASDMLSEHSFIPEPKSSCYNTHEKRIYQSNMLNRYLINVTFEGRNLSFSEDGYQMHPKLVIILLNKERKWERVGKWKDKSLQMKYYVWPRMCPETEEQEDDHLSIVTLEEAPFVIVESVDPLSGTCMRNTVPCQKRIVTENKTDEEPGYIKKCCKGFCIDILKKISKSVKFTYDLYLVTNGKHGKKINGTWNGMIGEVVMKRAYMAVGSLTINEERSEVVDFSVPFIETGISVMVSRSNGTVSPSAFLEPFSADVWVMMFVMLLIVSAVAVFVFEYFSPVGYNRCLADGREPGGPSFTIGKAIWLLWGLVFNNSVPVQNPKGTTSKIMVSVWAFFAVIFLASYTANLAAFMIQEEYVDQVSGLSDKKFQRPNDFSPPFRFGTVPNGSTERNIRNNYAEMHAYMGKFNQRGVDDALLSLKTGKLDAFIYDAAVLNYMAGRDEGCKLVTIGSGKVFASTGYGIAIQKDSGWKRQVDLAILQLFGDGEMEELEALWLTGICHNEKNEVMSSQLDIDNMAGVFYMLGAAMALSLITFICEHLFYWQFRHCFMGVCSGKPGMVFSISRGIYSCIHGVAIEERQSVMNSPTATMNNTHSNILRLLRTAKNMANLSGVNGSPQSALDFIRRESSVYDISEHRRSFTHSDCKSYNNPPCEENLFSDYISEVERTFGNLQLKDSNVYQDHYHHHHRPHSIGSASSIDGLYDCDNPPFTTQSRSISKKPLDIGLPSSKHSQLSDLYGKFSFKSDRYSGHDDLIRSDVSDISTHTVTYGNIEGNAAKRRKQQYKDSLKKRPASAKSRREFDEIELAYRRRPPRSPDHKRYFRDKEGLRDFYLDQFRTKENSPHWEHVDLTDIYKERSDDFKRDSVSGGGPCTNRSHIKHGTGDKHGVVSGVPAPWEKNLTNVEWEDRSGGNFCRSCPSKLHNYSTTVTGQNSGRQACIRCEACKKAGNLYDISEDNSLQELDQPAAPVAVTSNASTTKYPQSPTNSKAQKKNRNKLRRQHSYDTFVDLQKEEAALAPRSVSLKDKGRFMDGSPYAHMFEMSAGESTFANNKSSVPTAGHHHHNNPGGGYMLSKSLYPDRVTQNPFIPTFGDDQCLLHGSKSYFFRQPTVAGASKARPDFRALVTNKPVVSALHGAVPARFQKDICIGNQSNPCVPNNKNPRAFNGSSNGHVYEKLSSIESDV
Chain of SERT (P31645 whole entry): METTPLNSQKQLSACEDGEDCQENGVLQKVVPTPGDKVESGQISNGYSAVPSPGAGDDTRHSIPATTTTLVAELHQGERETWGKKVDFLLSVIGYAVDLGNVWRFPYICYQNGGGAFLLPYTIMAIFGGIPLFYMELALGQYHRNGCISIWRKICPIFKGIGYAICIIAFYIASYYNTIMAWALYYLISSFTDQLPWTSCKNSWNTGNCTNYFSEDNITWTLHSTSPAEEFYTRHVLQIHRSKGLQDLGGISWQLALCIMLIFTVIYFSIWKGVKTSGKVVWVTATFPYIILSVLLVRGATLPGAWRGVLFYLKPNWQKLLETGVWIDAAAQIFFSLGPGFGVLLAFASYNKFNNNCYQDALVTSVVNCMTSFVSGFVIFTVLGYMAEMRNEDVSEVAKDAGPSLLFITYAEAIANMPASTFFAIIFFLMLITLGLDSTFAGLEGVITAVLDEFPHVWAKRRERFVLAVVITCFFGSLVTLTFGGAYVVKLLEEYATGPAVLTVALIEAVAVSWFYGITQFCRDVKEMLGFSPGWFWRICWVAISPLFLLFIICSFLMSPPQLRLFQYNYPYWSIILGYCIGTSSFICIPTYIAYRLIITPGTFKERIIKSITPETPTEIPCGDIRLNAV
T1 sequence (P21554 whole entry): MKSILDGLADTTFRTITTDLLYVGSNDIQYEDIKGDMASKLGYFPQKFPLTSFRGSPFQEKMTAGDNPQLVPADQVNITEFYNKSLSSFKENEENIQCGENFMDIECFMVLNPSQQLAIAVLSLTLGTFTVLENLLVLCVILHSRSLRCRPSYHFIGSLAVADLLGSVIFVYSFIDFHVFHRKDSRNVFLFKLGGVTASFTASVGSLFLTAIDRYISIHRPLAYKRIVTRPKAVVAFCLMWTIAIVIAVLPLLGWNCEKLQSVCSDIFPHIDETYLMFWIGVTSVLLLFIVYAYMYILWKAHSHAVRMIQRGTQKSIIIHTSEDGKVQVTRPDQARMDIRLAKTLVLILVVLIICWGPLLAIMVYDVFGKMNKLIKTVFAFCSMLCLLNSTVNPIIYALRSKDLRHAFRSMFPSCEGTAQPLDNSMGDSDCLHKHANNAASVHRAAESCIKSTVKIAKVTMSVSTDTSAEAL

The first assay concerns the target T1, CNR1 (Homo sapiens, UniProt P21554). Put plainly: cell-based. Particulars: CNR1, GPCR, ANT (antagonist); read-out: IC50.
`CC(C)[Si](Oc1cccc2[nH]cc(CN(C)C)c12)(C(C)C)C(C)C` [A(V)]: the IC50 was above 100 µM.

As to `CN(C)CCc1c[nH]c2cccc(OC(=O)OCC3CC3)c12` [B(III)], the IC50 was above 100 µM.

Turning to `CCCCC(=O)OCOc1cccc2[nH]cc(CCN(C)C)c12` [D(III)], the IC50 was above 100 µM.

Consider `CCCC(=O)OCOc1cccc2[nH]cc(CCN(C)C)c12` [D(IV)], for which the IC50 was above 100 µM.

A further assay deals with T1, CNR1. Put plainly: cell-based. The following applies: CNR1, GPCR, AGN (agonist); read-out: EC50.
As to `CC(C)[Si](Oc1cccc2[nH]cc(CN(C)C)c12)(C(C)C)C(C)C` [A(V)], the EC50 is above 100 µM.

Consider `CN(C)CCc1c[nH]c2cccc(OC(=O)OCC3CC3)c12` [B(III)], for which the EC50 was above 100 µM.

`CCCCC(=O)OCOc1cccc2[nH]cc(CCN(C)C)c12` [D(III)]: the concentration for a half-maximal effect (EC50) is above 100 µM.

Consider `CCCC(=O)OCOc1cccc2[nH]cc(CCN(C)C)c12` [D(IV)], for which the EC50 is above 100 µM.

The next assay concerns the target T2, HTR3A (5-HT3A) (Homo sapiens, UniProt P46098).
T2 sequence (P46098 24-478): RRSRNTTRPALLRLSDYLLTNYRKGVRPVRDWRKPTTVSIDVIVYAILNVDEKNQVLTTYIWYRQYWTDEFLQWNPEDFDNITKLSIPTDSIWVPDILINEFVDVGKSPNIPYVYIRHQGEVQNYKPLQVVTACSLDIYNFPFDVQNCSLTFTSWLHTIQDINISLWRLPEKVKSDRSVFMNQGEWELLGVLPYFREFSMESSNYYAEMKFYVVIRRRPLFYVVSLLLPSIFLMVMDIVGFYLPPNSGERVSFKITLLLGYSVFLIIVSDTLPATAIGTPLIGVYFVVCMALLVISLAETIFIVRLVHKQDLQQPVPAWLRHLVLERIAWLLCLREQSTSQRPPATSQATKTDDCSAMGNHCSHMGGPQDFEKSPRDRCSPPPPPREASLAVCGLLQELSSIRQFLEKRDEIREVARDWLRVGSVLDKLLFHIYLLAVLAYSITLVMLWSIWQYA
Put plainly: cell-based. The following applies: HTR3A, ion channel, BL (blocker); read-out: IC50.
As for `CC(C)[Si](Oc1cccc2[nH]cc(CN(C)C)c12)(C(C)C)C(C)C` [A(V)], the IC50 was determined as 1.43 µM.

With `CN(C)CCc1c[nH]c2cccc(OC(=O)OCC3CC3)c12` [B(III)], the IC50 worked out at 47.4 µM.

As to `CCCCC(=O)OCOc1cccc2[nH]cc(CCN(C)C)c12` [D(III)], the IC50 came out at 32.4 µM.

Consider `CCCC(=O)OCOc1cccc2[nH]cc(CCN(C)C)c12` [D(IV)], for which the IC50 was above 100 µM.

Another assay deals with T3, AVPR1A (Homo sapiens, UniProt P37288). Put plainly: cell-based. Particulars: AVPR1A, GPCR, ANT (antagonist); read-out: IC50.
T3 sequence (P37288 whole entry): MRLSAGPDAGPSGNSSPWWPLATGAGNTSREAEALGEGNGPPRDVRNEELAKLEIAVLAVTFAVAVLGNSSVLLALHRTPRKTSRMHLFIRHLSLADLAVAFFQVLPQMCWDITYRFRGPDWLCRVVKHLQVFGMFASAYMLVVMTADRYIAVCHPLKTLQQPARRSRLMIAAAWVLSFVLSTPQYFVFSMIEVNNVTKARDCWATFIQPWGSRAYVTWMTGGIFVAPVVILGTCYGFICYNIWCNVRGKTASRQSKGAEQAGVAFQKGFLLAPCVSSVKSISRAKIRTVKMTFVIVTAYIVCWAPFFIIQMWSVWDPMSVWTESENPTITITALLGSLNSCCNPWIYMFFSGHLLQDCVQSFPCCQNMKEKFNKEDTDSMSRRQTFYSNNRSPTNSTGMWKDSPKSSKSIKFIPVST
On to `CC(C)[Si](Oc1cccc2[nH]cc(CN(C)C)c12)(C(C)C)C(C)C` [A(V)], for which the IC50 amounted to 17 µM.

In the case of `CN(C)CCc1c[nH]c2cccc(OC(=O)OCC3CC3)c12` [B(III)], the IC50 is above 100 µM.

For the compound `CCCCC(=O)OCOc1cccc2[nH]cc(CCN(C)C)c12` [D(III)], the IC50 is above 100 µM.

For the compound `CCCC(=O)OCOc1cccc2[nH]cc(CCN(C)C)c12` [D(IV)], the IC50 was above 100 µM.

The target of another assay is DRD2S (Homo sapiens, UniProt P14416). Put plainly: cell-based. Particulars: DRD2S, GPCR, AGN (agonist); read-out: EC50.
Chain of DRD2S (P14416 1-414 isoform P14416-2): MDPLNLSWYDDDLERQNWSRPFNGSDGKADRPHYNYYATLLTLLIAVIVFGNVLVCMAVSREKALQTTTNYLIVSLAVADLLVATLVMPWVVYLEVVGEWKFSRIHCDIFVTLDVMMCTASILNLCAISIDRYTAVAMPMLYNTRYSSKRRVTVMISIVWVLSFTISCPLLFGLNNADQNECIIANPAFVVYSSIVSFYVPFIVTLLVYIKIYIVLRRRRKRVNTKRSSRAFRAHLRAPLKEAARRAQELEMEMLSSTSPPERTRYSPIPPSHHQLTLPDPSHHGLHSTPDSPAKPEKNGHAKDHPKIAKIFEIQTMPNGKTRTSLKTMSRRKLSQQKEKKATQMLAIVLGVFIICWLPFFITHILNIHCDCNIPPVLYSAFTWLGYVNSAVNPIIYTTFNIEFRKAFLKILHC
With `CC(C)[Si](Oc1cccc2[nH]cc(CN(C)C)c12)(C(C)C)C(C)C` [A(V)], the EC50 was above 100 µM.

Consider `CN(C)CCc1c[nH]c2cccc(OC(=O)OCC3CC3)c12` [B(III)], for which the EC50 was found to be 3.81 µM.

In the case of `CCCCC(=O)OCOc1cccc2[nH]cc(CCN(C)C)c12` [D(III)], the half-maximal effective concentration (EC50) was 17.8 µM.

As to `CCCC(=O)OCOc1cccc2[nH]cc(CCN(C)C)c12` [D(IV)], the EC50 amounted to 27.4 µM.

A further assay concerns the target T4, CHRM1 (Homo sapiens, UniProt P11229).
T4 sequence (P11229 1-460): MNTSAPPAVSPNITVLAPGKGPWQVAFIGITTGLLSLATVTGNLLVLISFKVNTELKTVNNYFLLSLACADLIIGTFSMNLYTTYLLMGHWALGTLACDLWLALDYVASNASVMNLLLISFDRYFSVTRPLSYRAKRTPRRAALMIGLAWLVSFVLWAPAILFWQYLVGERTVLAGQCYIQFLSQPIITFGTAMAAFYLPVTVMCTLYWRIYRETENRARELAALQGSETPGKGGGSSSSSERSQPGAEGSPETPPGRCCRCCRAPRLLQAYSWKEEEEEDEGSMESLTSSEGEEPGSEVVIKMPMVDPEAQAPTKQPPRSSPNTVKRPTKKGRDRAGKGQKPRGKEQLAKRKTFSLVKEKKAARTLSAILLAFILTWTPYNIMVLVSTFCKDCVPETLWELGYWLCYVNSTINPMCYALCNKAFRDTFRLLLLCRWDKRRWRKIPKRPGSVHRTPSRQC
Briefly: cell-based. Particulars: CHRM1, GPCR, ANT (antagonist); read-out: IC50.
As for `CC(C)[Si](Oc1cccc2[nH]cc(CN(C)C)c12)(C(C)C)C(C)C` [A(V)], the IC50 was above 100 µM.

As to `CN(C)CCc1c[nH]c2cccc(OC(=O)OCC3CC3)c12` [B(III)], the half-inhibitory concentration (IC50) amounted to 53 µM.

As for `CCCCC(=O)OCOc1cccc2[nH]cc(CCN(C)C)c12` [D(III)], the IC50 stood at 52.6 µM.

Regarding `CCCC(=O)OCOc1cccc2[nH]cc(CCN(C)C)c12` [D(IV)], the IC50 was above 100 µM.

For another assay, the target named is T3, AVPR1A. Put plainly: cell-based. Particulars: AVPR1A, GPCR, AGN (agonist); read-out: EC50.
For `CC(C)[Si](Oc1cccc2[nH]cc(CN(C)C)c12)(C(C)C)C(C)C` [A(V)], the EC50 is above 100 µM.

For `CN(C)CCc1c[nH]c2cccc(OC(=O)OCC3CC3)c12` [B(III)], the EC50 was above 100 µM.

In the case of `CCCCC(=O)OCOc1cccc2[nH]cc(CCN(C)C)c12` [D(III)], the EC50 is above 100 µM.

Consider `CCCC(=O)OCOc1cccc2[nH]cc(CCN(C)C)c12` [D(IV)], for which the EC50 was above 100 µM.

The next assay concerns the target SERT (Homo sapiens, UniProt P31645). Put plainly: cell-based. The following applies: SERT, transporter, BL (blocker); read-out: IC50.
For `CC(C)[Si](Oc1cccc2[nH]cc(CN(C)C)c12)(C(C)C)C(C)C` [A(V)], the IC50 was above 100 µM.

Consider `CN(C)CCc1c[nH]c2cccc(OC(=O)OCC3CC3)c12` [B(III)], for which the IC50 was above 100 µM.

`CCCCC(=O)OCOc1cccc2[nH]cc(CCN(C)C)c12` [D(III)]: the IC50 is above 100 µM.

`CCCC(=O)OCOc1cccc2[nH]cc(CCN(C)C)c12` [D(IV)]: the IC50 was above 100 µM.

The next assay concerns the target T4, CHRM1. Briefly: cell-based. Particulars: CHRM1, GPCR, AGN (agonist); read-out: EC50.
With `CC(C)[Si](Oc1cccc2[nH]cc(CN(C)C)c12)(C(C)C)C(C)C` [A(V)], the 50% effective concentration (EC50) is above 100 µM.

Turning to `CN(C)CCc1c[nH]c2cccc(OC(=O)OCC3CC3)c12` [B(III)], the EC50 was above 100 µM.

Consider `CCCCC(=O)OCOc1cccc2[nH]cc(CCN(C)C)c12` [D(III)], for which the EC50 is above 100 µM.

Regarding `CCCC(=O)OCOc1cccc2[nH]cc(CCN(C)C)c12` [D(IV)], the EC50 was above 100 µM.

The target of another assay is NET (Homo sapiens, UniProt P23975). Briefly: cell-based. The following applies: NET, transporter, BL (blocker); read-out: IC50.
Chain of NET (P23975 whole entry): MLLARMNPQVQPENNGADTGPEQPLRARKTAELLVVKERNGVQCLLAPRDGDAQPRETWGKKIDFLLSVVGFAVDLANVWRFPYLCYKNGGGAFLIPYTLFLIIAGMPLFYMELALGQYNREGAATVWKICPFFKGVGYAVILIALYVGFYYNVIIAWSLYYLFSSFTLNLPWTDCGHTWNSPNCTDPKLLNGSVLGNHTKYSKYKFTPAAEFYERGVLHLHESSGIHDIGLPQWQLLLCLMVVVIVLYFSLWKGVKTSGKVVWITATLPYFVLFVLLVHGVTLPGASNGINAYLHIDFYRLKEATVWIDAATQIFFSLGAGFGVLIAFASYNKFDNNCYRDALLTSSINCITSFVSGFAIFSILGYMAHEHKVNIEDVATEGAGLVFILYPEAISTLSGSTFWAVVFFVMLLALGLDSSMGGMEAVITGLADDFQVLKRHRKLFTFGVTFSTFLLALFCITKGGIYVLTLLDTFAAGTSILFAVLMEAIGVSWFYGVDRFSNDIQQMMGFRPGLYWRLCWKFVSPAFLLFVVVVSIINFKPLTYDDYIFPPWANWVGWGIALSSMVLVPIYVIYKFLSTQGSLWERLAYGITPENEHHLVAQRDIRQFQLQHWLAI
Turning to `CC(C)[Si](Oc1cccc2[nH]cc(CN(C)C)c12)(C(C)C)C(C)C` [A(V)], the IC50 is 18.9 µM.

`CN(C)CCc1c[nH]c2cccc(OC(=O)OCC3CC3)c12` [B(III)]: the IC50 is above 100 µM.

As to `CCCCC(=O)OCOc1cccc2[nH]cc(CCN(C)C)c12` [D(III)], the IC50 was above 100 µM.

Regarding `CCCC(=O)OCOc1cccc2[nH]cc(CCN(C)C)c12` [D(IV)], the IC50 is above 100 µM.

Another assay has as its target NMDAR (Homo sapiens, UniProt Q05586+Q13224). Briefly: cell-based. Particulars: NMDAR, ion channel, BL (blocker); read-out: IC50.
Consider `CC(C)[Si](Oc1cccc2[nH]cc(CN(C)C)c12)(C(C)C)C(C)C` [A(V)], for which the IC50 was determined as 10.1 µM.

On to `CN(C)CCc1c[nH]c2cccc(OC(=O)OCC3CC3)c12` [B(III)], for which the IC50 was above 100 µM.

With `CCCCC(=O)OCOc1cccc2[nH]cc(CCN(C)C)c12` [D(III)], the IC50 is above 100 µM.

Turning to `CCCC(=O)OCOc1cccc2[nH]cc(CCN(C)C)c12` [D(IV)], the IC50 was above 100 µM.

The target in another assay is T5, MAO-A (Homo sapiens, UniProt P21397).
T5 construct: purchased Sigma
T5 sequence (P21397 1-527): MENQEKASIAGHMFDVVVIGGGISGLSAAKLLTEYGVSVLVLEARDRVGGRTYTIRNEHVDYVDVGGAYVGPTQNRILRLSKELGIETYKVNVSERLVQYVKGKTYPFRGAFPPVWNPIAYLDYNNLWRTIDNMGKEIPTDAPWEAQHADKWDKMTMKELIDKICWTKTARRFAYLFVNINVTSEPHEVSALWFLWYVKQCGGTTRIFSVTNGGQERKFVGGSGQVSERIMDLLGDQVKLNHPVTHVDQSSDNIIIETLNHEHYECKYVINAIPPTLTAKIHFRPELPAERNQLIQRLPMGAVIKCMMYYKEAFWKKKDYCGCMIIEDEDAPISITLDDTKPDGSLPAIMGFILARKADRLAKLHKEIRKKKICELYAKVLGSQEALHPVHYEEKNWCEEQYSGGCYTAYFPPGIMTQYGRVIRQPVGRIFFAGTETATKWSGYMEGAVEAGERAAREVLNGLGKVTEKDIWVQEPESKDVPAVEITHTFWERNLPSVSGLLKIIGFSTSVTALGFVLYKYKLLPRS
Put plainly: biochemical. The following applies: MAO-A, enzyme, IN (inhibitor); read-out: IC50.
Regarding `CC(C)[Si](Oc1cccc2[nH]cc(CN(C)C)c12)(C(C)C)C(C)C` [A(V)], the IC50 is 48.8 µM.

On to `CN(C)CCc1c[nH]c2cccc(OC(=O)OCC3CC3)c12` [B(III)], for which the IC50 was above 100 µM.

Turning to `CCCCC(=O)OCOc1cccc2[nH]cc(CCN(C)C)c12` [D(III)], the IC50 is above 100 µM.

As for `CCCC(=O)OCOc1cccc2[nH]cc(CCN(C)C)c12` [D(IV)], the IC50 is above 100 µM.

The target in a further assay is T6, CHRM2 (Homo sapiens, UniProt P08172).
T6 sequence (P08172 1-466): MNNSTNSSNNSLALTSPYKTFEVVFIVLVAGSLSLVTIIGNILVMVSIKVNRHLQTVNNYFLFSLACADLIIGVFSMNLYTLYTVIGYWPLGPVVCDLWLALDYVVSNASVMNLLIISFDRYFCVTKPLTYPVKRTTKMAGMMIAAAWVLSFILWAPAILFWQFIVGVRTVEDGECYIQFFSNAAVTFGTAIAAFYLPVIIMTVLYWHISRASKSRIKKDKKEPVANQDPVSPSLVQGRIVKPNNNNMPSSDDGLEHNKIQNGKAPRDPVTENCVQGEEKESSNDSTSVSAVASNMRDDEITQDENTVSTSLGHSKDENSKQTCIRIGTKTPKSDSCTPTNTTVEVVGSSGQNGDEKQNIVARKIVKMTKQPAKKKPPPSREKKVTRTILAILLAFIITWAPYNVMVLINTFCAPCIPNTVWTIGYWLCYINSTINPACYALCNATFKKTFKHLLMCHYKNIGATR
Put plainly: cell-based. The following applies: CHRM2, GPCR, AGN (agonist); read-out: EC50.
With `CC(C)[Si](Oc1cccc2[nH]cc(CN(C)C)c12)(C(C)C)C(C)C` [A(V)], the EC50 was above 100 µM.

In the case of `CN(C)CCc1c[nH]c2cccc(OC(=O)OCC3CC3)c12` [B(III)], the EC50 was above 100 µM.

As for `CCCCC(=O)OCOc1cccc2[nH]cc(CCN(C)C)c12` [D(III)], the EC50 was above 100 µM.

On to `CCCC(=O)OCOc1cccc2[nH]cc(CCN(C)C)c12` [D(IV)], for which the EC50 was above 100 µM.
